According to patent EP4763847A1 (Jiangsu Yahong Meditech Co., Ltd., priority 2023, dated 2025):

Experiments:
PRMT5-MTA = PRMT5-MTA (Homo sapiens, UniProt O14744); assay: biochemical; settings: IC50 (nM), PRMT5+MTA enzyme activity inhibition; PRMT5/MET50 protein 1 nM, 5'-deoxy-5'-adenosine 1 µM, SAM 2.5 µM, Histone H4 substrate 5 nM
Method: The enzymatic inhibition activity of the compounds against PRMT5-MTA was detected using the AlphaScreen method. A 1× methyltransferase assay buffer IV (Signalchem) was prepared as a dilution solution for each component of the enzymatic reaction. […] The test compounds were added to all wells except the control wells in a 3-fold dilution series of 10 concentration points starting from 1000 nM using a Tecan D300e. After centrifugation at 1000 rpm for 1 minute in a centrifuge, the plate was incubated at 23°C for 15 minutes. Histone H4 substrate at a final concentration of 5 nM was added to the plate at 4 µL per well. After centrifugation at 1000 rpm for 1 minute in a centrifuge, the plate was reacted in an incubator at 23°C for 45 minutes. Anti-Histone H4 (symmetric dimethyl R3) antibody (Abcam) was pre-incubated with 50 µg/mL AlphaScreen Protein A Acceptor beads (PerkinElmer) at room temperature for 10 minutes, and then added to the plate in a volume of 10 µL per well, followed by reaction at room temperature for 1 hour. 10 µL of 50 µg/mL AlphaScreen Streptavidin Donor beads (PerkinElmer) were added to each well, and reacted at room temperature for 1 hour. The signal values in the plate were detected using the Alpha method on an Envision multi-mode plate reader. The IC50 values of the compounds for PRMT5/MET50 enzyme activity inhibition were calculated in Xlfit 5.0 software.

HCT116 MTAP KO = assay: Cell proliferation inhibition (CellTiter Glo), HCT116 MTAP KO cells; type: cell-based; settings: Homo sapiens, HCT-116, 144 h, cultured 6 days with compound
Method: (§1) Test Example 2: Test of cell proliferation inhibition activity of the compounds
(§2) HCT116-WT (ATCC, CCL-247) and HCT116 MTAP KO (Cobioer Nanjing, CBP75002) cells were seeded into white low-transparency 96-well sterile cell culture plates at a density of 250 cells per well, respectively. The culture medium was McCoy's 5A Medium + 10% FBS. The plates were incubated overnight at 37°C with 5% CO2. The cells were treated with compounds gradiently with an initial concentration of 10000 nM, 4-fold dilution, and 8 concentration points. The last two columns were control wells with only DMSO added. The treated cells were continued to be cultured for 6 days. On the seventh day, 50 µL of CellTiter Glo® reagent was added to each well. After reacting on a shaker at room temperature for 10 minutes, the chemiluminescence signal in the plate was detected using the chemiluminescence detection method on a BIOTEK H1 multi-mode plate reader. […] Table 2: IC50 values of compounds for HCT116 MTAP KO/WT cell growth inhibition

HCT116-WT = assay: Cell proliferation inhibition (CellTiter Glo), HCT116-WT cells; type: cell-based; settings: 144 h, cultured 6 days with compound
Method: as §1, §2

Sequence of PRMT5-MTA (O14744 whole entry): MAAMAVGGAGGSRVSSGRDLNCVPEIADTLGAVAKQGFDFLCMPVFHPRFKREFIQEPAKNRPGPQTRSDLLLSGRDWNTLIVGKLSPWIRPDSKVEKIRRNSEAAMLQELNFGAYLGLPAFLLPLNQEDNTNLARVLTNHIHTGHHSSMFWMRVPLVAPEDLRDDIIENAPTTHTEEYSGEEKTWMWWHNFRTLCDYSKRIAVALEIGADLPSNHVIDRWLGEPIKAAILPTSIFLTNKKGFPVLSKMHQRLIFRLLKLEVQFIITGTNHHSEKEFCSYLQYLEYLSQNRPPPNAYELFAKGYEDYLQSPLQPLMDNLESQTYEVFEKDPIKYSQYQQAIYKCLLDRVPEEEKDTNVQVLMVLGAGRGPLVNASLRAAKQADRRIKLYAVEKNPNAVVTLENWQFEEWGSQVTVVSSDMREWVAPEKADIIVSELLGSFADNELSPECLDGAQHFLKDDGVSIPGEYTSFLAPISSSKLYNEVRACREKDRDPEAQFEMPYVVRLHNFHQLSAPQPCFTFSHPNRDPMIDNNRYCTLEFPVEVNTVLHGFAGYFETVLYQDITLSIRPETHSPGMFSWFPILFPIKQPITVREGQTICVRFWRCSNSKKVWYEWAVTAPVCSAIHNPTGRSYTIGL
Sequence of PRMT5-MTA (Q9BQA1 whole entry partner): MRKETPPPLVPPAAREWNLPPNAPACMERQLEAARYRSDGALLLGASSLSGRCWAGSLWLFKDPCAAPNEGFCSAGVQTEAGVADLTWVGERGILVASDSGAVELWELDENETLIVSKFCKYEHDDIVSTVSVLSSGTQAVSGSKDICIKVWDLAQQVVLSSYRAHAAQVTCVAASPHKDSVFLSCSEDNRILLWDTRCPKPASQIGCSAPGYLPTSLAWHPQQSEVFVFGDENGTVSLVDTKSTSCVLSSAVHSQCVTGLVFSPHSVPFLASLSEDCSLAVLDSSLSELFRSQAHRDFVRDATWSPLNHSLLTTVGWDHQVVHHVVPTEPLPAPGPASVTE

Row | Structure (SMILES) | IC50 (PRMT5-MTA) | IC50 (HCT116 MTAP KO) | IC50 (HCT116-WT)
1 | CNC(N)=Nc1ccc(C(=O)N(Cc2ccc(C(F)(F)F)cn2)C(C)c2ccccc2OC(F)(F)F)cn1 (stereo not drawn) [Compound 60] | 2.8 nM | 0.933 µM | 2.95 µM
2 | CNC(N)=Nc1ccc(C(=O)N(Cc2ccc(C(F)(F)F)cn2)C(C)c2ncccn2)cn1 (stereo not drawn) [Compound 1] | 1.7 nM | 0.15 µM | 2.25 µM
3 | CNC(N)=Nc1ccc(C(=O)N(Cc2ccc(C(F)(F)F)cn2)C2CCOc3cccnc32)cn1 (stereo not drawn) [Compound 90] | 1.5 nM | 0.081 µM | 1.52 µM
4 | CN/C(N)=N\c1ccc(C(=O)N(Cc2ccc(C(F)(F)F)cn2)[C@H]2CCCc3ccccc32)cn1 [Compound 114, (S,Z)-6-((amino(methylamino)methylene)amino)-N-(1,2,3,4-tetrahydronaphthalen-1-yl) -N-((5-(trifluoromethyl)pyridin-2-yl)methyl)nicotinamide] | 3.2 nM | 0.612 µM | 2.97 µM
5 | CNC(N)=Nc1ccc(C(=O)N(Cc2ccc(C(F)(F)F)cn2)C(C)c2ccccc2C)cn1 (stereo not drawn) [Compound 41] | 2.5 nM | 0.931 µM | 3.71 µM
6 | CNC(N)=Nc1ccc(C(=O)N(Cc2ccc(C(F)(F)F)cn2)C(C)c2ccccc2C(F)(F)F)cn1 (stereo not drawn) [Compound 115] | 0.9 nM | 0.942 µM | 3.18 µM
7 | CNC(N)=Nc1ccc(C(=O)N(Cc2ccc(C(F)(F)F)cn2)C2CCCc3ccccc32)cn1 (stereo not drawn) [Compound 61] | 1.4 nM | 0.028 µM | 0.769 µM
8 | CNC(N)=Nc1ccc(C(=O)N(Cc2ccc(C(F)(F)F)cn2)n2ccc3ccccc32)cn1 [Compound 62] | 4.1 nM | 0.076 µM | 1.79 µM
9 | CNC(N)=Nc1ccc(C(=O)N(Cc2ccc(C(F)(F)F)cn2)[C@@H]2CCc3ccccc32)cn1 [Compound 83] | 4 nM | 0.195 µM | 1.71 µM
10 | CNC(N)=Nc1ccc(C(=O)N(Cc2ccc(C(F)(F)F)cn2)n2ccc3cccnc32)cn1 [Compound 56, 6-((amino(methylamino)methylene)amino)-N-(1H-pyrrolo[2,3-b]pyridin-1-yl)-N-[(5-(trifluoromethyl)pyridin-2-yl)methyl)nicotinamide] | 5.8 nM | 0.036 µM | 0.536 µM
11 | CNC(N)=Nc1ccc(C(=O)N(Cc2ccc(C(F)(F)F)cn2)C(C)c2ccccn2)cn1 (stereo not drawn) [Compound 34] | 1.8 nM | 0.182 µM | 3.48 µM
12 | NC(=Nc1ccc(C(=O)N(Cc2ccc(C(F)(F)F)cn2)C2CCCc3ccccc32)cn1)NO (stereo not drawn) [Compound 116] | 3.4 nM | 0.063 µM | 0.307 µM
13 | CCNC(N)=Nc1ccc(C(=O)N(Cc2ccc(C(F)(F)F)cn2)C(C)c2ncccn2)cn1 (stereo not drawn) [Compound 14] | 1.3 nM | 0.707 µM | 3.55 µM
14 | CNC(N)=Nc1ccc(C(=O)N(Cc2ccccc2)Cc2ccc(C(F)(F)F)cn2)cn1 [Compound 36] | 3.6 nM | 0.521 µM | 5.36 µM
15 | CN/C(N)=N\c1ccc(C(=O)N(Cc2ccc(C(F)(F)F)cn2)C(c2ccccc2F)C2CC2)cn1 (stereo not drawn) [Compound 94, (Z)-6-((amino(methylamino)methylene)amino)-N-(cyclopropyl(2-fluorophenyl)methyl) -N-((5-(trifluoromethyl)pyridin-2-yl)methyl)nicotinamide] | 6.6 nM | 0.049 µM | 0.912 µM
16 | CNC(N)=Nc1ccc(C(=O)N(Cc2ccc3sc(C4CCN(C)CC4)nc3c2)[C@H](C)c2ccccc2F)cn1 [Compound 79] | 3.1 nM | 0.782 µM | 3.44 µM
17 | CN/C(N)=N\c1ccc(C(=O)N(Cc2ccc(C(F)(F)F)cn2)C2CCc3cccnc32)cn1 (stereo not drawn) [Compound 92, (Z)-6-((amino(methylamino)methylene)amino)-N-(6,7-dihydro-5H-cyclopenta[b]pyridin-7-yl)-N-((5-(trifluoromethyl)pyridin-2-yl)methyl)nicotinamide] | 1.6 nM | 0.134 µM | 1.48 µM
18 | NC(=Nc1ccc(C(=O)N(Cc2ccc(C(F)(F)F)cn2)C2CCCc3cccnc32)cn1)NO (stereo not drawn) [Compound 117] | 5.7 nM | 0.021 µM | 0.115 µM
19 | CNC(N)=Nc1ccc(C(=O)N(Cc2ccc(-c3cnc4c(cnn4C)c3)cn2)[C@H](C)c2ccccc2F)cn1 [Compound 73] | 6.5 nM | 0.072 µM | 1.07 µM
20 | CC(c1ncccn1)N(Cc1ccc(C(F)(F)F)cn1)C(=O)c1ccc(N=C(N)NO)nc1 (stereo not drawn) [Compound 12] | 3 nM | 0.055 µM | 0.21 µM
21 | CN/C(N)=N\c1ccc(C(=O)N(Cc2ccc(-c3ccc(N4CCN(C)CC4)nc3)cn2)[C@H](C)c2ccccc2F)cn1 [Compound 130, (R,Z)-6-((amino(methylamino)methylene)amino)-N-(1-(2-fluorophenyl)ethyl)-N-((6'-(4-methylpiperazin-1-yl)-[3,3'-bipyridin]-6-yl)methyl)nicotinamide] | 9.7 nM | 0.329 µM | 1.57 µM
22 | CNC(N)=Nc1ccc(C(=O)N(Cc2ccc(C(F)(F)F)cn2)[C@H]2CCc3ccccc32)cn1 [Compound 87] | 2.7 nM | 0.975 µM | 3.31 µM

More lines, now with the values ahead:

Row | IC50 (PRMT5-MTA) | IC50 (HCT116 MTAP KO) | IC50 (HCT116-WT) | Structure (SMILES)
23 | 2.6 nM | 0.036 µM | 0.844 µM | CN/C(N)=N\c1ccc(C(=O)N(Cc2ccc(C(C)(C)F)cn2)[C@H](C)c2ccccc2F)cn1 [Compound 75, (R,Z)-6-((amino(methylamino)methylene)amino)-N-(1-(2-fluorophenyl)ethyl)-N-((5-(2-fluoropropan-2-yl)pyridin-2-yl)methyl)nicotinamide]
24 | 1.5 nM | 0.454 µM | 2.7 µM | CN/C(N)=N\c1ccc(C(=O)N(Cc2ccc(C(F)(F)F)cn2)C(C)c2ccc(F)cc2)cn1 (stereo not drawn) [Compound 118, (Z)-6-((amino(methylamino)methylene)amino)-N-(1-(4-fluorophenyl)ethyl)-N-((5-(trifluoromethyl)pyridin-2-yl)methyl)nicotinamide]
25 | 5.4 nM | 0.032 µM | 0.345 µM | CN/C(N)=N\c1ccc(C(=O)N(Cc2ccc(C(C)(F)F)cn2)[C@H](C)c2ccccc2F)cn1 [Compound 76, (R,Z)-6-((amino(methylamino)methylene)amino)-N-((5-(1,1-difluoroethyl)pyridin-2-yl)methyl)-N-(1-(2-fluorophenyl)ethyl)nicotinamide]
26 | 7.7 nM | 0.062 µM | 1.09 µM | CNC(N)=Nc1ccc(C(=O)N(Cc2ccc(-c3ccc(C)nc3)cn2)[C@H](C)c2ccccc2F)cn1 [Compound 71]
27 | 4.8 nM | 0.05 µM | 0.643 µM | CNC(N)=Nc1ccc(C(=O)N(Cc2ccc(-c3cnn(C(F)(F)F)c3)cn2)[C@H](C)c2ccccc2F)cn1 [Compound 69]
28 | 6.1 nM | 0.304 µM | 2.35 µM | CNC(N)=Nc1ccc(C(=O)N(Cc2ccc(F)cc2)[C@H](C)c2ccccc2F)cn1 [Compound 112]
29 | 4.6 nM | 0.445 µM | 3.33 µM | CNC(N)=Nc1ccc(C(=O)N(Cc2ccccc2)[C@H](C)c2ccccc2F)cn1 [Compound 99]
30 | 7.7 nM | 0.169 µM | 1.99 µM | CNC(N)=Nc1ccc(C(=O)N(Cc2ccc(-c3cccnc3)cn2)[C@H](C)c2ccccc2F)cn1 [Compound 68]
31 | 3.1 nM | 0.353 µM | 5.7 µM | CN/C(N)=N\c1ccc(C(=O)N(Cc2ccc3nn(C)cc3c2)[C@H](C)c2ccccc2F)cn1 [Compound 97, (R,Z)-6-((amino(methylamino)methylene)amino)-N-(1-(2-fluorophenyl)ethyl)-N-((2-methyl-2H-indazol-5-yl)methyl)nicotinamide]
32 | 5.8 nM | 0.416 µM | > 10 µM | CNC(N)=Nc1ccc(C(=O)N(Cc2cscn2)[C@H](C)c2ccccc2F)cn1 [Compound 104]
33 | 8 nM | 0.041 µM | 0.744 µM | CNC(N)=Nc1ccc(C(=O)N(Cc2ccc(C(C)F)cn2)[C@H](C)c2ccccc2F)cn1 (stereo partly drawn) [Compound 74, 6-((Z)-(amino(methylamino)methylene)amino)-N-((5-(1-fluoroethyl)pyridin-2-yl)methy 1)-N-((R)-1-(2-fluorophenyl)ethyl)nicotinamide]
34 | 3.7 nM | 0.496 µM | 6.45 µM | CNC(N)=Nc1ccc(C(=O)N(Cc2ccccn2)[C@H](C)c2ccccc2F)cn1 [Compound 111]
35 | 5.8 nM | 0.658 µM | 7.72 µM | CNC(N)=Nc1ccc(C(=O)N(Cc2ccc(C)nc2)[C@H](C)c2ccccc2F)cn1 [Compound 109]
36 | 7.9 nM | 0.048 µM | 0.452 µM | CNC(N)=Nc1ccc(C(=O)N(Cc2ccc(C(F)(F)F)cc2)[C@H](C)c2ccccc2F)cn1 [Compound 108]
37 | 2.6 nM | 0.05 µM | 0.667 µM | CNC(N)=Nc1ccc(C(=O)N(Cc2ccc3c(cnn3C)c2)[C@H](C)c2ccccc2F)cn1 [Compound 102]
